Experimental data from ChEMBL document CHEMBL4229478, “Synthesis, Characterization, and Biological Evaluation of a Porphyrin-Based Photosensitizer and Its Isomer for Effective Photodynamic Therapy against Breast Cancer” (J Med Chem, 2018).
Activity calls are given as the source filed them. The rule behind the calls is not given here.

What was measured:
[1] = test system: Mus musculus; experiment: Toxicity in BALB/c mouse xenografted with mouse 4T1 cells assessed as pathological changes in spleen at 4 mg/kg, iv measured at day 22 post dose by hematoxylin and eosin staining based light microscopic analysis; format: organism-based; conditions: in vivo
[2] = Drug uptake in human MDA-MB-231 cells at 5 uM after 4 hrs by fluorescence microscopic analysis; format: ADME, cell-based; conditions: mda-mb-231, 4 h
[3] = test system: Mus musculus; experiment: Toxicity in BALB/c mouse xenografted with mouse 4T1 cells assessed as pathological changes in lung at 4 mg/kg, iv measured at day 22 post dose by hematoxylin and eosin staining based light microscopic analysis; format: organism-based; conditions: in vivo
[4] = test system: HUVEC; experiment: Phototoxicity against HUVEC assessed as cell viability at 0.5 uM preincubated for 4 hrs followed by 0.5 to 2 J/cm2 light irradiation and measured after 24 hrs by MTT assay; format: cell-based; conditions: human
[5] = Tmax in tumor of BALB/c mouse xenografted with mouse 4T1 cells at 10 mg/kg, iv measured after […] by fluorescence assay; format: ADME, organism-based, Neoplasm
[6] = test system: MDA-MB-231; experiment: Induction of ROS generation in human MDA-MB-231 cells incubated with DCF-DA probe for 30 mins prior to ROS scavenger NAC addition 1 hr before 2 J/cm2 light irradiation and measured after 1 hr post irradiation by flow cytometric analysis; format: functional, cell-based
[7] = Drug uptake in endoplasmic reticulum of human MDA-MB-231 cells at 10 uM after 4 hrs by ER tracker green-based confocal laser scanning microscopic analysis; format: ADME, subcellular; conditions: mda-mb-231, 4 h
[8] = Dark toxicity against mouse 4T1 cells assessed as cell viability at 0.5 uM after 24 hrs by MTT assay; format: cell-based; conditions: 4t1, 24 h
[9] = Drug uptake in human MDA-MB-231 cells at 5 uM by flow cytometric analysis; format: ADME, cell-based; conditions: mda-mb-231, 5 µM, TDE = time-dependent effect
[10] = test system: 4T1; experiment: Antitumor activity against mouse 4T1 cells xenografted in BALB/c mouse assessed as inhibition of tumor volume at 2 mg/kg, iv pretreated for 24 hrs followed by 50 J/cm2 light irradiation and measured at day 22 post dose relative to control; format: functional; conditions: 4T1, light or radiation study
[11] = test system: 4T1; experiment: Antitumor activity against mouse 4T1 cells xenografted in BALB/c mouse assessed as inhibition of tumor weight at 1 to 4 mg/kg, iv pretreated for 24 hrs followed by 50 J/cm2 light irradiation and measured at day 22 post last dose; format: functional, organism-based
[12] = Drug uptake in spleen of BALB/c mouse xenografted with mouse 4T1 cells at 10 mg/kg, iv measured at 12 hrs post injection by IVIS spectrum imaging; format: ADME, organism-based; conditions: in vivo
[13] = Drug uptake in kidney of BALB/c mouse xenografted with mouse 4T1 cells at 10 mg/kg, iv measured at 12 hrs post injection by IVIS spectrum imaging; format: ADME, organism-based; conditions: in vivo
[14] = test system: 4T1; experiment: Induction of apoptosis in mouse 4T1 cells xenografted in BALB/c mouse at 4 mg/kg, iv pretreated for 24 hrs followed by 50 J/cm2 light irradiation by TUNEL assay; format: functional, organism-based
[15] = test system: Mus musculus; experiment: Toxicity in BALB/c mouse xenografted with mouse 4T1 cells assessed as effect on body weight at 4 mg/kg, iv measured at day 22 post last dose; format: organism-based; conditions: in vivo
[16] = test system: 4T1; experiment: Antitumor activity against mouse 4T1 cells xenografted in BALB/c mouse assessed as induction of tissue destruction with large spaces at 4 mg/kg, iv pretreated for 24 hrs followed by 50 J/cm2 light irradiation by hematoxylin and eosin staining based light microscopic analysis; format: functional, organism-based
[17] = test system: MDA-MB-231; experiment: Induction of apoptosis in human MDA-MB-231 cells assessed as late apoptotic cells after 24 hrs upon light irradiation by Annexin-V FITC/propidium iodide staining based flow cytometric analysis (reference value: 1.28%); format: functional
[18] = test system: 4T1; experiment: Antitumor activity against mouse 4T1 cells xenografted in BALB/c mouse assessed as inhibition of tumor volume at 1 mg/kg, iv pretreated for 24 hrs followed by 50 J/cm2 light irradiation and measured at day 22 post dose relative to control; format: functional; conditions: 4T1, light or radiation study
[19] = test system: Mus musculus; experiment: Toxicity in BALB/c mouse xenografted with mouse 4T1 cells assessed as pathological changes in spleen at 1 to 4 mg/kg, iv pre-tretaed for 24 hrs followed by 50 J/cm2 light irradiation and measured at day 22 post dose by hematoxylin and eosin staining based light microscopic analysis; format: organism-based; conditions: in vivo
[20] = Drug uptake in tumor of BALB/c mouse xenografted with mouse 4T1 cells at 10 mg/kg, iv measured up to 3 to 24 hrs post injection by fluorescence assay; format: ADME, organism-based, Neoplasm; conditions: in vivo
[21] = test system: 4T1; experiment: Phototoxicity against mouse 4T1 cells assessed as cell viability at 0.5 uM preincubated for 4 hrs followed by 0.5 J/cm2 light irradiation and measured after 24 hrs by MTT assay relative to control; format: functional; conditions: 4T1, light or radiation study, read-out: Activity
[22] = test system: Mus musculus; experiment: Hepatotoxicity in BALB/c mouse xenografted with mouse 4T1 cells assessed as pathological changes in liver at 1 to 4 mg/kg, iv pre-tretaed for 24 hrs followed by 50 J/cm2 light irradiation and measured at day 22 post dose by hematoxylin and eosin staining based light microscopic analysis; format: toxicity, organism-based; conditions: in vivo
[23] = test system: Mus musculus; experiment: Toxicity in BALB/c mouse xenografted with mouse 4T1 cells assessed as pathological changes in lung at 1 to 4 mg/kg, iv pre-tretaed for 24 hrs followed by 50 J/cm2 light irradiation and measured at day 22 post dose by hematoxylin and eosin staining based light microscopic analysis; format: organism-based; conditions: in vivo
[24] = test system: 4T1; experiment: Phototoxicity against mouse 4T1 cells assessed as cell viability at 0.5 uM preincubated for 4 hrs followed by 1 J/cm2 light irradiation and measured after 24 hrs by MTT assay relative to control; format: functional; conditions: 4T1, light or radiation study, read-out: Activity
[25] = test system: MDA-MB-231; experiment: Phototoxicity against human MDA-MB-231 cells assessed as cell viability incubated with ROS scavenger NAC 1 hr before 2 J/cm2 light irradiation by MTT assay relative to control; format: functional
[26] = test system: MDA-MB-231; experiment: Induction of apoptosis in human MDA-MB-231 cells assessed as early apoptotic cells after 24 hrs by Annexin-V FITC/propidium iodide staining based flow cytometric analysis (reference value: 1.22%); format: cell-based; conditions: mda-mb-231, 24 h
[27] = Drug uptake in mitochondria of human MDA-MB-231 cells at 10 uM after 4 hrs by Mito tracker green-based confocal laser scanning microscopic analysis; format: ADME; conditions: mda-mb-231, 4 h
[28] = Dark toxicity against human MCF7 cells assessed as cell viability at 0.5 uM after 24 hrs by MTT assay; format: cell-based; conditions: mcf7, 24 h
[29] = test system: Mus musculus; experiment: Nephrotoxicity in BALB/c mouse xenografted with mouse 4T1 cells assessed as pathological changes in kidney at 4 mg/kg, iv measured at day 22 post dose by hematoxylin and eosin staining based light microscopic analysis; format: toxicity, organism-based; conditions: in vivo
[30] = test system: Mus musculus; experiment: Hepatotoxicity in BALB/c mouse xenografted with mouse 4T1 cells assessed as pathological changes in liver at 4 mg/kg, iv pre-tretaed for 24 hrs followed by 50 J/cm2 light irradiation and measured at day 22 post dose by hematoxylin and eosin staining based light microscopic analysis; format: toxicity, organism-based; conditions: in vivo
[31] = test system: Mus musculus; experiment: Toxicity in BALB/c mouse xenografted with mouse 4T1 cells assessed as effect on body weight at 4 mg/kg, iv pre-tretaed for 24 hrs followed by 50 J/cm2 light irradiation and measured at day 22 post dose; format: organism-based; conditions: in vivo
[32] = Induction of singlet oxygen generation in cell free condition upon 635 nm semiconductor laser light irradiation by singlet oxygen sensor green dye based fluorescence spectrophotometeric analysis; format: functional
[33] = Selectivity index, ratio of dark toxicity against human MCF7 at 0.5 uM cells to phototoxicity against human MCF7 cells at 0.5 uM; format: cell-based; conditions: read-out: Selectivity Index

Drug uptake [2]	Tmax [5] [h]	Drug uptake [7]	Drug uptake [9]	Drug uptake [12]	Drug uptake [13]	Drug uptake [20]	SMILES	Activity [1]	Activity [3]	Activity [4]	Activity [6]	Activity [8]	inhibition in vivo at 2 mg/kg [10] [%]	inhibition [11]	Activity [14]	Activity [15]	Activity [16]	Activity [17] [%]	inhibition in vivo at 1 mg/kg [18] [%]	Activity [19]	further results
Active	12	Active	Tde	Not Active	Not Active	Active	C=Cc1c(C)c2cc3nc(cc4[nH]c(cc5nc(cc1[nH]2)C(C)=C5C(C)OCCCCCC)c(C)c4CCC(=O)[O-])C(CCC(=O)[O-])=C3C.[Na+].[Na+] (stereo unspecified)	Non-Toxic	Non-Toxic	Non-Toxic	inactive	Non-Toxic	43	Active	Active	Non-Toxic	Active	53.54	27.8	Non-Toxic	viability at 0.5 µM [21]: 86.4%; Activity [22]: Non-Toxic; Activity [23]: Non-Toxic; viability at 0.5 µM [24]: 61.7%; Activity [25]: >80%; Activity [26]: 3.72%; Drug uptake [27]: Active; Activity [28]: Non-Toxic; Activity [29]: Non-Toxic; Activity [30]: Non-Toxic; Activity [31]: Non-Toxic; Activity [32]: Dose-dependent effect; selectivity ratio at 0.5 µM [33]: 90.8
Active	12	Active	Tde	Not Active	Not Active	Active	C=CC1=C(C)c2cc3[nH]c(cc4nc(cc5[nH]c(cc1n2)c(C)c5CCC(=O)[O-])C(CCC(=O)[O-])=C4C)c(C)c3C(C)OCCCCCC.[Na+].[Na+] (stereo unspecified)	Non-Toxic	Non-Toxic	Non-Toxic	inactive	Non-Toxic	28	Active	Active	Non-Toxic	Active	40.09	15.4	Non-Toxic	viability at 0.5 µM [21]: 98%; Activity [22]: Non-Toxic; Activity [23]: Non-Toxic; viability at 0.5 µM [24]: 76.1%; Activity [25]: >80%; Activity [26]: 4.02%; Drug uptake [27]: Active; Activity [28]: Non-Toxic; Activity [29]: Non-Toxic; Activity [30]: Non-Toxic; Activity [31]: Non-Toxic; Activity [32]: Dose-dependent effect; selectivity ratio at 0.5 µM [33]: 24.2
